Laboratory results as given in patent US10265303B2, “Hyperphenylalaninemia and treatments thereof” (BERGEN TEKNOLOGIOVERFØRING AS, priority 2015, dated 2019).
Residue numbers refer to the chain shown, from its start.

Experiments:
[1] = target: T1, hPAH (Homo sapiens, UniProt P00439); assay: SPR screening and affinity determination on immobilized hPAH (Biacore T200); assay type: binding; conditions: for Kd: SPR, 25° C., compound 0-500 μM in 5% DMSO, affinities said to be overestimated, relative KD reliable, read-out: KD (μM) ± SER
T1 sequence (P00439 1-452): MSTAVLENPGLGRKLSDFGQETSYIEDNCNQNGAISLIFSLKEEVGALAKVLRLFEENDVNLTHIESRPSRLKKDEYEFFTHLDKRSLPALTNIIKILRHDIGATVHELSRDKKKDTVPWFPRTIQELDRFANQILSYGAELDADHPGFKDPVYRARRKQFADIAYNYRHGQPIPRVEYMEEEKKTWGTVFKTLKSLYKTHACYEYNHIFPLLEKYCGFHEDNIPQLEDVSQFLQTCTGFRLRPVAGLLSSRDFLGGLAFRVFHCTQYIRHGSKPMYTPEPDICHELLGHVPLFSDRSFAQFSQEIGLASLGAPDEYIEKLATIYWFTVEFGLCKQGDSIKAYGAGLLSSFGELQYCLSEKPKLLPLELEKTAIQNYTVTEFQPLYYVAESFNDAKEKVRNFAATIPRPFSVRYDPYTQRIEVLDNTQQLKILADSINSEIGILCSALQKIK
Method: For detailed determination of binding affinity of Compound 53 and derivatives (FIG. 4) SPR was performed on a Biacore T200 (GE Healthcare Life Sciences) at a temperature of 25° C. A hPAH solution at 0.08 μg/μl in a final volume of 200 μl in acetate buffer pH 5.0 was immobilized onto series S sensor chip CM5 by the standard amine coupling procedure at a flow rate of 30 μl/min and PBS-P+ buffer as running buffer aiming for RU 20000. After the coupling reaction the surface of the sensor chip was washed to eliminate unbound species with HBS buffer (0.01 M NaHepes pH 7.4, 0.15 M NaCI) at steady flow of 20 μl/min for 1 hour until the baseline drift was around 0.05 RU/s; note that an early injection of 40 μl dithiothreitol (DTT) 10 mM in HBS allowed for this reduced washing time.
For the screening, compounds were assayed at a concentration of 200 μM, with 5% DMSO in duplicates, including negative controls with 5% DMSO, positive controls, with 200 μM BH2 and solvent correction was also performed. For KD calculations, a compound concentration 0-500 μM (in 5% DMSO) were applied at otherwise analogous experimental design and analyses were performed using Biacore T200 Evaluation Software, version 2.0 (GE Healthcare Life Sciences).
All the responses from the compounds of the screening were subjected to blank subtraction (negative control 5% DMSO), molecular weight adjustment and solvent correction to account for differences in bulk response. Next a cut-off value for the screening was selected based on the response of the positive control of our experiments: RU BH2+3*SD (2.88+3*1.79=8.27). In this manner, from the 11 derivatives of Compound 53 tested (see FIG. 4) we weeded out those compounds with a lower response than 8.27, namely #53.2, #53.9 and #53.11.
In addition and for the rest of the compounds which continued our workflow, binding affinities were determined and the results are shown in the following table. The selected conditions to measure affinity are selected for high throughput measurements, but the affinities are overestimated though the relative KD for the different compounds are reliable.

[2] = target: T2, human wild-type PAH (Homo sapiens, UniProt P00439); assay: PAH activity in lysates of HEK293 cells permanently expressing human wild-type PAH; assay type: cell-based; conditions: 1% DMSO, 8 h; for PAH activity-cells (%): 0.04 mg/ml compound, Table 3; for increase of hPAH activity with respect to the control (FIG. 6): average compound concentration 144.9 μM
T2 construct: expressed in transfected cells
T2 sequence (P00439 1-452): T1 sequence (P00439 1-452)
Method: (§1) Human embryonic kidney cells (HEK293; Life Technologies™) permanently expressing WT-hPAH, prepared with the Flp-In system (Life Technologies™) were kindly provided by Per Knappskog, Haukeland University Hospital. About 1 million cells were grown in DMEM medium containing 4.5 g/l glucose, 10% (v/v) fetal calf serum, 0.25 mg/ml gentamycine, 2 mM L-glutamine and 50 μg/ml hygromycin B, and after 24 h medium was changed and the test compounds were added at a concentration of 0.02 mg/ml (1% DMSO). Eight hours later, the cells were harvested, and the pellets frozen in dry ice and stored at −80° C. […] To prepare the cell extracts, the frozen cell pellets were thawed in TBS (+protease inhibitor) buffer and cells were homogenized with 0.1% TX-100, incubated 15 minutes at 4° C. and extracts were clarified by centrifugation 20000 g for 15 min at 4° C. Protein concentrations were normalized using a Direct Detect Spectrometer (Merck Millipore).
The 7 selected compounds as well as the first generation pharmacological chaperones (Compounds III and IV) were further analyzed in the presence and absence of BH2 (200 μM), added as precursor of BH4, to account for additive effects. […]
as §1, with “and the compounds were” for “and the test compounds were”, “concentration of 0.04 mg/ml (1%” for “concentration of 0.02 mg/ml (1%”, “for 15 minutes at 4°” for “for 15 min at 4°”

[3] = target: T2, human wild-type PAH; assay: PAH immunoreactive protein level (Western blot) in HEK293 cells permanently expressing human wild-type PAH; assay type: cell-based; conditions: BH2 200 μM alone, 8 h, 1% DMSO
Method: as §1
The 7 selected compounds as well as the first generation pharmacological chaperones (Compounds III and IV) were further analyzed in the presence and absence of BH2 (200 μM), added as precursor of BH4, to account for additive effects. A higher concentration of compound was also used 0.04 mg/ml (average of 116.7 μM) at otherwise same experimental conditions.

[4] = target: T3, I65T-PAH (Homo sapiens, UniProt P00439, I65T); assay: PAH protein level and activity in HEK293 EBNA cells transiently expressing PKU mutant I65T; assay type: cell-based; conditions: 200 μM, 24 h, 1% DMSO
T3 construct: expressed in transfected cells; host or cells: HEK293 EBNA, transient, pcDNA3-PAH
T3 sequence (P00439 1-452 I65T): T1 sequence (P00439 1-452) with I65T
Method: (§2) Cell lysates were prepared as indicated above.

[5] = target: T4, R261Q-PAH (Homo sapiens, UniProt P00439, R261Q); assay: PAH protein level and activity in HEK293 EBNA cells transiently expressing PKU mutant R261Q; assay type: cell-based; conditions: 200 μM, 24 h, 1% DMSO
T4 construct: expressed in transfected cells; host or cells: HEK293 EBNA, transient, pcDNA3-PAH
T4 sequence (P00439 1-452 R261Q): T1 sequence (P00439 1-452) with R261Q
Method: as §2

[6] = target: dihydrofolate reductase (DHFR); conditions: read-out: IC50 (DHFR); ChEMBL database; cited from earlier work

| SMILES | Kd [1] | PAH activity-cells (%) [2] | other results |
| --- | --- | --- | --- |
| Nc1nc2c(c(=O)[nH]1)C(c1ccc(Cl)cc1Cl)CC(=O)N2 (racemic) [c53.10] | 22.9 ± 2.7 µM | 155 ± 13% | increase of hPAH activity with respect to the control (FIG. 6) [2]: around 40% |
| COc1ccc(C2CC(=O)Nc3nc(N)[nH]c(=O)c32)cc1OC (racemic) [c53.16] | 76.3 ± 26.4 µM | 146 ± 10% |  |
| Nc1nc2c(c(=O)[nH]1)C(c1ccc3c(c1)OCO3)CC(=O)N2 (racemic) [c53.17] | 11 ± 3.7 µM | 206 ± 10% |  |
| COc1ccc(C2CC(=O)Nc3nc(N)[nH]c(=O)c32)cc1 (racemic) [c53.19] | 37.2 ± 23.7 µM | 170 ± 17% |  |
| COc1cccc(C2CC(=O)Nc3nc(N)[nH]c(=O)c32)c1 (racemic) [c53.20] | 23.2 ± 11.7 µM | 206 ± 5% |  |
| Nc1nc2c(c(=O)[nH]1)C(c1ccc(Cl)cc1)CC(=O)N2 (racemic) [c53.22] | 30.1 ± 6.5 µM | 154 ± 16% |  |
| CSc1nc2c(c(=O)[nH]1)C(c1ccc3c(c1)OCO3)CC(=O)N2 (racemic) [c53.26] | 62.1 ± 30.7 µM | 109 ± 5% |  |
| COc1cc(C2CC(=O)Nc3nc(N)ccc32)cc(Cl)c1OC (racemic) [c53.29] | 191 ± 20 µM | 155 ± 7% |  |
| COc1ccc(C2CC(=O)Nc3nc(N)ccc32)cc1O (racemic) [c53.31] | 55.9 ± 6.7 µM | 125 ± 8% |  |
| Nc1ccc2c(n1)NC(=O)CC2c1ccc2c(c1)OCCO2 (racemic) [c53.32] | 102 ± 11 µM |  |  |
| COc1ccc(C2CC(=O)Nc3nc(N)ccc32)c(OC)c1OC (racemic) [c53.33] | 182 ± 32 µM |  |  |
| Nc1nc2c(c(=O)[nH]1)C(c1ccc3c(c1)OCO3)CC(=O)N2 (racemic) [c53.35] | 23.7 ± 5 µM |  |  |
| Nc1nc2c(c(=O)[nH]1)C(c1cccc(Cl)c1)CC(=O)N2 (racemic) [c53.40] | 11.6 ± 1.6 µM |  |  |
| Nc1nc2c(c(=O)[nH]1)C(c1cccc3ccccc13)CC(=O)N2 (racemic) [c53.41] | 12.6 ± 6.4 µM |  |  |
| C[C@H](O)[C@H](O)C1=Nc2c(nc(N)[nH]c2=O)NC1 [BH2] |  |  | SPR screening response (blank-subtracted, MW-adjusted, solvent-corrected) ([1]; 200 μM, 5% DMSO, duplicates, cut-off 8.27): 2.88 RU; stimulating effect on PAH activity ([2]; BH2 200 μM alone): 21.7%; stimulating effect on PAH protein [3]: 24.8%; PAH activity, mutant I65T [4]: increased; hPAH protein level, mutant I65T [4]: increased; PAH activity, mutant R261Q [5]: increased; hPAH protein level, mutant R261Q [5]: increased |
| COc1cc(Cc2ccc(N)nc2N)cc(OC)c1O [CHEMBL 128600] |  |  | IC50 [6]: 10000 µM |
| COc1ccc(Cc2cnc(N)nc2N)cc1OC [c53.1] | 104 ± 14 µM | 130 ± 8% |  |
| COc1cc(Cc2ccc(N)nc2N)cc(OC)c1OC [c53.4] | 45.2 ± 9.1 µM | 165 ± 28% | increase of hPAH activity with respect to the control (FIG. 6) [2]: around 40% |
| COc1cc(C(c2c[nH]c3ccccc23)c2c[nH]c3ccccc23)cc(OC)c1OC [c53.5] | 370 ± 228 µM |  |  |
| CCOc1ccc(Cc2cnc(S)nc2N)cc1 [c53.6] | 103 ± 48.8 µM | 120 ± 12% |  |
| Nc1ncc(Cc2ccc3c(c2)OCO3)c(N)n1 [c53.7] | 6.9 ± 4.9 µM | 119 ± 5% |  |
| Nc1nc(N)c(Cc2ccc3c(c2)OCO3)c(N)n1 [c53.14] | 24.7 ± 12.1 µM | 175 ± 23% |  |
